Consider five compounds from patent US20150105252A1, “SUBSTITUTED PYRAZOLES AS HERBICIDES” (E I DU PONT DE NEMOURS AND COMPANY, priority 2013, published 2015).

The subject of one assay is horseweed. The experiment in a line: Test F postemergence. It counts as in vivo, Conyza canadensis. Conditions: scale 0 to 100. From the text:
(§1) Seeds of plant species selected from corn (Zea mays), soybean (Glycine max), velvetleaf (Abutilon theophrasti), lambsquarters (Chenopodium album), wild poinsettia (Euphorbia heterophylla), pigweed, palmer (palmer pigweed, Amaranthus palmeri), common waterhemp (Amaranthus rudis), surinam grass (Brachiaria decumbens), large crabgrass (Digitaria sanguinalis), crabgrass, Brazil (Brazilian crabgrass, Digitaria horizontalis), fall panicum (Panicum dichotomiflorum), giant foxtail (Setaria faberii), green foxtail (Setaria viridis), goosegrass (Eleusine indica), johnsongrass (Sorghum halepense), common ragweed (Ambrosia elation), barnyardgrass (Echinochloa crus-galli), southern sandbur (Cenchrus echinatus), arrowleaf sida (Sida rhombifolia), Italian ryegrass (Lolium multiflorum), dayflower, VA (Virginia (VA) dayflower, Commelina virginica), field bindweed (Convolvulus arvensis), cocklebur (common cocklebur, Xanthium strumarium), morningglory (Ipomoea coccinea), nightshade (eastern black nightshade, Solanum ptycanthum), kochia (Kochia scoparia), yellow nutsedge (Cyperus esculentus), and hairy beggarticks (Bidens pilosa), were planted into a silt loam soil and treated preemergence with test chemicals formulated in a non-phytotoxic solvent mixture which included a surfactant.
(§2) At the same time, plants from these crop and weed species and also horseweed (Canada horseweed, Conyza canadensis), smartweed (ladysthumb smartweed, Polygonum persicaria), waterhemp_RES1, (ALS & Triazine resistant common waterhemp, Amaranthus rudis), and waterhemp_RES2, (ALS & HPPD resistant common waterhemp, Amaranthus rudis) were treated with postemergence applications of test chemicals formulated in the same manner. Plants ranged in height from 2 to 18 cm for postemergence treatments (1- to 4-leaf stage). Treated plants and controls were maintained in a greenhouse for 14 to 21 days, after which time all species were compared to controls and visually evaluated. Plant response ratings, summarized in Table F, are based on a scale of 0 to 100 where 0 is no effect and 100 is complete control. A dash (-) response means no test result.

The test system of the next assay is buckwheat, wild. The experiment in a line: Test E preemergence. It counts as in vivo, Polygonum convolvulus. Conditions: 21 days, scale 0 to 100. From the text:
(§3) Seeds of plant species selected from bermudagrass (Cynodon dactylon), Surinam grass (Brachiaria decumbens), crabgrass, large (large crabgrass, Digitaria sanguinalis), crabgrass, naked (naked crabgrass, Digitaria nuda), foxtail, green (green foxtail, Setaria viridis), johnsongrass (Sorghum halepense), kochia (Kochia scoparia), morningglory (pitted morningglory, Ipomoea lacunosa), nutsedge, purple (purple nutsedge, Cyperus rotundus), ragweed (common ragweed, Ambrosia elation), mustard, black (black mustard, Brassica nigra), guineagrass (Panicum maximum), dallisgrass (Paspalum dilatatum), barnyardgrass (Echinochloa crus-galli), sandbur (southern sandbur, Cenchrus echinatus), sowthistle (common sowthistle, Sonchus oleraceous), ryegrass, Italian (Italian ryegrass, Lolium multiflorum), signalgrass (broadleaf signalgrass, Brachiaria platyphylla), dayflower, VA (Virginia (VA) dayflower, Commelina virginica), bluegrass (annual bluegrass, Poa annua), quackgrass (Elytrigia repens), mallow (common mallow, Malva sylvestris), buckwheat, wild (wild buckwheat, Polygonum convolvulus), leafy spurge (Euphorbia esula), common chickweed (Stellaria media), wild poinsettia (Euphorbia heterophylla), pigweed, palmer (palmer pigweed, Amaranthus palmeri), and pigweed (redroot pigweed, Amaranthus retroflexus) were planted into a blend of loam soil and sand and treated preemergence with test chemicals formulated in a non-phytotoxic solvent mixture which included a surfactant.
(§4) Treated plants and controls were maintained in a greenhouse for 21 days, after which time all species were compared to controls and visually evaluated. Plant response ratings, summarized in Table E, are based on a scale of 0 to 100 where 0 is no effect and 100 is complete control. A dash (-) response means no test result.

In the next assay the test system is hairy beggarticks. The experiment in a line: Test F postemergence. It counts as in vivo, Bidens pilosa. Conditions: scale 0 to 100. The method, boiled down:
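Greenhouse study; evaluation window 14–21 days post-treatment. Seedlings sprayed postemergence measured 2–18 cm, while preemergence treatments went on silt loam soil. Non-phytotoxic solvent mixture with surfactant served as vehicle; response assessed by eye, 0–100 scale.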

In another assay the test system is ryegrass, Italian. The experiment in a line: Test E preemergence. It counts as in vivo, Lolium multiflorum. Conditions: 21 days, scale 0 to 100.
From the text: as §3, §4

The test system of assay [1] is common ragweed. The experiment in a line: Test F postemergence. It counts as in vivo, Ambrosia elation. Conditions: scale 0 to 100.
From the text: as §1, §2

A further assay has as its system dallisgrass. The experiment in a line: Test E preemergence. Conditions: 21 days, scale 0 to 100. In kind it is in vivo, Paspalum dilatatum.
From the text: as §3, §4

The subject of a further assay is soybean. The experiment in a line: Test F postemergence. Conditions: scale 0 to 100. In kind it is in vivo, Glycine max.
From the text: as §1, §2

The subject of a further assay is johnsongrass. The experiment in a line: Test E preemergence. It counts as in vivo, Sorghum halepense. Conditions: 21 days, scale 0 to 100.
From the text: as §3, §4

The next assay has as its system Italian ryegrass. The experiment in a line: Test A postemergence. In kind it is in vivo, Lolium multiflorum. The method in brief: (§5)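 Both timings tested concurrently in loam/sand soil: preemergence by directed soil spray, postemergence on plants of 2–10 cm at the one- to two-leaf stage. Greenhouse holding period was approximately 10 days before visual injury assessment (0–100, 0 = no effect).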

In assay [2] the test system is common ragweed. The experiment in a line: Test A postemergence. It counts as in vivo, Ambrosia elation. The method, boiled down:
as §5

The mark [3] stands for this setting: Postemergence, 500 g ai/ha, 0 to 100 scale (0 no effect, 100 complete control).
Setting [4] is: postemergence, 125 g ai/ha, about 10 days, visual rating on 0 to 100 scale (0 no effect, 100 complete control).

Regarding `CCOc1cc(C(=O)NCC(F)(F)F)nn1Cc1ccnc(C(F)(F)F)c1` [Compound 104], the “Plant response rating, Horseweed” value in the assay with horseweed (Postemergence, 31 g ai/ha) is 25; in the assay on horseweed (Postemergence, 125 g ai/ha) it was 35; in the assay with horseweed (Postemergence, 250 g ai/ha), 35; with horseweed (postemergence, 62 g ai/ha), 30; in the assay with horseweed (postemergence, 500 g ai/ha), 45. For the same compound, the “Plant response rating, Buckwheat, Wild” value in the assay with buckwheat, wild (16 g ai/ha) is 100; in the assay on buckwheat, wild (31 g ai/ha) it was 100; in the assay with buckwheat, wild (62 g ai/ha), 100; with buckwheat, wild (125 g ai/ha), 100; with buckwheat, wild (250 g ai/ha), 100. Moreover, the “Plant response rating, Hairy Beggarticks” value came to 50 with hairy beggarticks (Postemergence, 31 g ai/ha); 60 with hairy beggarticks (Postemergence, 125 g ai/ha); 85 in the assay on hairy beggarticks (Postemergence, 250 g ai/ha); 50 with hairy beggarticks (postemergence, 62 g ai/ha); 90 in the assay on hairy beggarticks (postemergence, 500 g ai/ha). Moreover, the “Plant response rating, Ryegrass, Italian” value came to 75 with ryegrass, Italian (16 g ai/ha); 98 in the assay on ryegrass, Italian (31 g ai/ha); 100 in the assay with ryegrass, Italian (62 g ai/ha); 100 in the assay with ryegrass, Italian (125 g ai/ha); 100 in the assay on ryegrass, Italian (250 g ai/ha). Moreover, the “Plant response rating, Common Ragweed” value with common ragweed [1] (Postemergence, 31 g ai/ha) is on record as 40; in the assay with common ragweed [1] (Postemergence, 125 g ai/ha) it was 70; in the assay on common ragweed [1] (Postemergence, 250 g ai/ha) it was 98; with common ragweed [1] (postemergence, 62 g ai/ha) it was 50; with common ragweed [1] (postemergence, 500 g ai/ha), 98. The “Plant response rating, Dallisgrass” value with dallisgrass (16 g ai/ha) turned out to be 95; in the assay with dallisgrass (31 g ai/ha), 98; with dallisgrass (62 g ai/ha), 100; in the assay with dallisgrass (125 g ai/ha), 100; in the assay on dallisgrass (250 g ai/ha), 100. Further, the “Plant response rating, Soybean” value with soybean (Postemergence, 31 g ai/ha) amounted to 95; in the assay with soybean (Postemergence, 125 g ai/ha), 98; in the assay with soybean (Postemergence, 250 g ai/ha), 98; with soybean (postemergence, 62 g ai/ha), 95; in the assay with soybean (postemergence, 500 g ai/ha) it was 95. In addition, the “Plant response rating, Johnsongrass” value worked out at 95 with johnsongrass (16 g ai/ha); 100 in the assay with johnsongrass (31 g ai/ha); 100 in the assay on johnsongrass (62 g ai/ha); 100 in the assay with johnsongrass (125 g ai/ha); 100 in the assay on johnsongrass (250 g ai/ha).
For `CCCc1cc(C(=O)NCC(F)(F)F)nn1Cc1ccnc(C(F)(F)F)c1` [Compound 105], the “Plant response rating, Horseweed” value in the assay with horseweed (Postemergence, 31 g ai/ha) amounted to 20; in the assay on horseweed (Postemergence, 125 g ai/ha), 35; in the assay on horseweed (Postemergence, 250 g ai/ha), 50; with horseweed (postemergence, 62 g ai/ha) it was 25; in the assay on horseweed (postemergence, 500 g ai/ha), 70. The “Plant response rating, Buckwheat, Wild” value in the assay with buckwheat, wild (16 g ai/ha) worked out at 100; with buckwheat, wild (31 g ai/ha), 100; in the assay with buckwheat, wild (62 g ai/ha) it was 100; in the assay with buckwheat, wild (125 g ai/ha), 100; with buckwheat, wild (250 g ai/ha), 100. The “Plant response rating, Hairy Beggarticks” value in the assay on hairy beggarticks (Postemergence, 31 g ai/ha) came out at 40; in the assay with hairy beggarticks (Postemergence, 125 g ai/ha), 50; in the assay on hairy beggarticks (Postemergence, 250 g ai/ha), 70; in the assay on hairy beggarticks (postemergence, 62 g ai/ha), 50; in the assay with hairy beggarticks (postemergence, 500 g ai/ha) it was 85. For the same compound, the “Plant response rating, Ryegrass, Italian” value in the assay on ryegrass, Italian (16 g ai/ha) amounted to 65; in the assay on ryegrass, Italian (31 g ai/ha), 85; in the assay with ryegrass, Italian (62 g ai/ha), 100; with ryegrass, Italian (125 g ai/ha), 100; in the assay with ryegrass, Italian (250 g ai/ha), 100. In addition, the “Plant response rating, Common Ragweed” value came to 50 with common ragweed [1] (Postemergence, 31 g ai/ha); 90 in the assay with common ragweed [1] (Postemergence, 125 g ai/ha); 90 with common ragweed [1] (Postemergence, 250 g ai/ha); 70 with common ragweed [1] (postemergence, 62 g ai/ha); 95 with common ragweed [1] (postemergence, 500 g ai/ha). For the same compound, the “Plant response rating, Dallisgrass” value in the assay on dallisgrass (16 g ai/ha) is 20; in the assay with dallisgrass (31 g ai/ha), 95; in the assay with dallisgrass (62 g ai/ha), 100; in the assay on dallisgrass (125 g ai/ha), 100; with dallisgrass (250 g ai/ha), 100. Moreover, the “Plant response rating, Soybean” value with soybean (Postemergence, 31 g ai/ha) came to 70; in the assay with soybean (Postemergence, 125 g ai/ha), 90; with soybean (Postemergence, 250 g ai/ha), 95; in the assay with soybean (postemergence, 62 g ai/ha), 80; in the assay on soybean (postemergence, 500 g ai/ha) it was 100. Moreover, the “Plant response rating, Johnsongrass” value with johnsongrass (16 g ai/ha) is reported as 35; in the assay with johnsongrass (31 g ai/ha), 80; with johnsongrass (62 g ai/ha), 98; with johnsongrass (125 g ai/ha), 98; in the assay with johnsongrass (250 g ai/ha), 100.
Consider `CCONC(=O)c1cc(CC)n(Cc2cc(C(F)(F)F)no2)n1` [Compound 125], for which the “Italian Ryegrass plant response rating” value in the assay on Italian ryegrass (setting [3]) was found to be 80; with Italian ryegrass (setting [4]), 20. For the same compound, the figures for the “Common Ragweed plant response rating” value in the assay on common ragweed [2] (setting [3]) and in the assay with common ragweed [2] (setting [4]) were 60 and 20, respectively.
As for `CCOc1cc(C(=O)NC2CC2)nn1Cc1ccnc(OC(F)F)c1` [Compound 133], the “Italian Ryegrass plant response rating” value is listed as 80 in the assay on Italian ryegrass (setting [3]) and 60 with Italian ryegrass (setting [4]). The “Common Ragweed plant response rating” value is given as 100 in the assay on common ragweed [2] (setting [3]) and 60 in the assay on common ragweed [2] (setting [4]).
As for `CCc1cc(C(=O)NCC(F)(F)F)nn1Cc1cc(OC(F)F)nn1C` [Compound 206], the “Italian Ryegrass plant response rating” value worked out at 0 in the assay with Italian ryegrass (Postemergence, 125 g ai/ha, 0 to 100 scale, 0 no effect, 100 complete control) and 50 in the assay on Italian ryegrass (setting [3]). Further, the “Common Ragweed plant response rating” value in the assay on common ragweed [2] (setting [3]) was 30; in the assay on common ragweed [2] (setting [4]), 0.
